Values belong to the molecule of their own block, whether it stands above or below them.
Experiments:
[1] = test system: AS1411-N6 (FRET-labeled) (DNA, G4) GGTTGGGGTGGTGGTGGTTGTGGTGGTGGTGGCCAACC; assay: FRET melting; conditions: K+ 140 mM; 10 mM lithium cacodylate pH 7.2; ligand 4 eq., DNA 0.2 µM
[2] = test system: AS1411 (FRET-labeled) (DNA, G4) GGTGGTGGTGGTTGTGGTGGTGGTGG; assay: FRET melting; conditions: K+ 140 mM; 10 mM lithium cacodylate pH 7.2; ligand 4 eq., DNA 0.2 µM
[3] = test system: AS1411-N6 (biotin-labeled) (DNA, G4) GGTTGGGGTGGTGGTGGTTGTGGTGGTGGTGGCCAACC; assay: SPR; conditions: K+ 140 mM; 10 mM phosphate, 25 °C; 1:1 affinity model
[4] = test system: AS1411 (DNA, G4) GGTGGTGGTGGTTGTGGTGGTGGTGG; assay: CD spectra; conditions: K+ 140 mM; 10 mM lithium cacodylate; ellipticity increase
[5] = test system: AS1411 (biotin-labeled) (DNA, G4) GGTGGTGGTGGTTGTGGTGGTGGTGG; assay: SPR; conditions: K+ 140 mM; 10 mM phosphate, 25 °C; 1:1 affinity model
[6] = test system: AS1411-N6 (DNA, G4) GGTTGGGGTGGTGGTGGTTGTGGTGGTGGTGGCCAACC; assay: CD melting (260 nm); conditions: K+ 140 mM; 10 mM lithium cacodylate pH 7.2; ligand 4 eq., DNA 10 µM
[7] = test system: AS1411-N6 (DNA, G4) GGTTGGGGTGGTGGTGGTTGTGGTGGTGGTGGCCAACC; assay: 1H NMR titration (imino region); conditions: 10 mM potassium phosphate pH 6.9, 10% D2O, 25 °C; duplex signals lost at 3 eq.
[8] = test system: AS1411-N6 (DNA, G4) GGTTGGGGTGGTGGTGGTTGTGGTGGTGGTGGCCAACC; assay: CD spectra; conditions: K+ 140 mM, 10 mM lithium cacodylate
[9] = test system: AS1411 (DNA, G4) GGTGGTGGTGGTTGTGGTGGTGGTGG; assay: CD melting (260 nm); conditions: K+ 140 mM; 10 mM lithium cacodylate pH 7.2; ligand equivalents not given
[10] = biological target: T1, nucleolin RBD1,2 (NCL RBD 1,2) (UniProt P19338 307-466); assay: fluorescence titration; 360A; PAGE: 10 mM phosphate, 140 mM KCl, 20 uM DNA, 1:1(:1) ratio, 30 min; fluorescence titration buffer, pH and temperature not given in the material; conditions: protein: recombinant; unlabelled in PAGE; stem-loop duplex plus G4; monomer major, dimer band also seen
T1 sequence (P19338 307-466): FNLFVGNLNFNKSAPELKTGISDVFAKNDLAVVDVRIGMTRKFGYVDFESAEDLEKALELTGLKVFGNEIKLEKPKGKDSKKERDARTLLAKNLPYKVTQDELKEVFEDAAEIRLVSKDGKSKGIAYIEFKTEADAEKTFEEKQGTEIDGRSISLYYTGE

[11] = biological target: T1, nucleolin RBD1,2 (NCL RBD 1,2); assay: fluorescence titration; no ligand; PAGE: 10 mM phosphate, 140 mM KCl, 20 uM DNA, 1:1(:1) ratio, 30 min; fluorescence titration buffer, pH and temperature not given in the material; conditions: protein: recombinant; unlabelled in PAGE; stem-loop duplex plus G4; monomer major, dimer band also seen
[12] = biological target: T1, nucleolin RBD1,2 (NCL RBD 1,2); assay: fluorescence titration; TMPyP4; PAGE: 10 mM phosphate, 140 mM KCl, 20 uM DNA, 1:1(:1) ratio, 30 min; fluorescence titration buffer, pH and temperature not given in the material; conditions: protein: recombinant; unlabelled in PAGE; stem-loop duplex plus G4; monomer major, dimer band also seen
[13] = biological target: T1, nucleolin RBD1,2 (NCL RBD 1,2); assay: fluorescence titration; PhenDC3; PAGE: 10 mM phosphate, 140 mM KCl, 20 uM DNA, 1:1(:1) ratio, 30 min; fluorescence titration buffer, pH and temperature not given in the material; conditions: protein: recombinant; unlabelled in PAGE; stem-loop duplex plus G4; monomer major, dimer band also seen

Molecule: CN(C)c1ccc(Nc2c3ccc(NC(=O)CCN4CCCC4)cc3nc3cc(NC(=O)CCN4CCCC4)ccc23)cc1
- ΔTm [1]: 3.73 ± 0.09 °C
- ΔTm [2]: 8.99 ± 0.79 °C

Molecule: C[n+]1ccc(-c2c3nc(c(-c4cc[n+](C)cc4)c4ccc([nH]4)c(-c4cc[n+](C)cc4)c4nc(c(-c5cc[n+](C)cc5)c5ccc2[nH]5)C=C4)C=C3)cc1
- binding ([8]; ellipticity increase): yes
- ΔTm [1]: 28.94 ± 0.23 °C
- KD [3]: 264 ± 30 nM
- KD [5]: 115 ± 7.09 nM
- ΔTm [2]: 21.75 ± 1.08 °C
- ΔTm [9]: ~ 25 °C

B1: AS1411-N6 (structured_DNA)
DNA: GGTTGGGGTGGTGGTGGTTGTGGTGGTGGTGGCCAACC
- Kd [10]: 700 ± 100 nM
- Kd [11]: 1000 ± 100 nM
- Kd [12]: 1100 ± 200 nM
- Kd [13]: 1500 ± 300 nM

The next lines start with the values.

- ΔTm [1]: 2.35 ± 0.44 °C
- ΔTm [2]: -0.75 ± 1.02 °C
Molecule: NCCOc1cc(C(=O)Nc2cc(OCCN)c3ccccc3n2)nc(C(=O)Nc2cc(OCCN)c3ccccc3n2)c1

- ΔTm [1]: 20.16 ± 0.41 °C
- KD [3]: 38.2 ± 5.4 nM
- binding [4]: yes
- KD [5]: 43.4 ± 8.47 nM
- ΔTm [2]: 19.28 ± 0.99 °C
- ΔTm [6]: > 30 °C
- binding [7]: yes
Molecule: C[n+]1cc(NC(=O)c2cccc(C(=O)Nc3cc4ccccc4[n+](C)c3)n2)cc2ccccc21

- binding ([8]; 280 nm band lost at 3–4 eq.): yes
- ΔTm [1]: 22.89 ± 1.49 °C
- KD [3]: 227 ± 54 nM
- binding [4]: yes
- KD [5]: 344 ± 53.8 nM
- ΔTm [2]: 24.77 ± 2.56 °C
Molecule: C[n+]1cc(NC(=O)c2ccc3ccc4ccc(C(=O)Nc5cc6ccccc6[n+](C)c5)nc4c3n2)cc2ccccc21

From publication PMC7916057
